Experimental data published in US20240300917A1, “MICROBIOCIDAL QUINOLINE/QUINOXALINE ISOQUINOLINE DERIVATIVES” (SYNGENTA CROP PROTECTION AG, priority 2021, published 2024).

| SMILES | melting point |
| --- | --- |
| C[C@@H]1N=C(c2cnc3c(F)cccc3c2)c2cccc(Cl)c2[C@H]1C (racemic) [E.13, rac-(3S,4R)-5-chloro-1-(8-fluoro-3-quinolyl)-3,4-dimethyl-3,4-dihydroisoquinoline] | 112 to 114 °C |
| Cc1ccc2c(c1Cl)[C@@H](C)[C@H](C)N=C2c1cnc2c(F)cccc2c1 (racemic) [E.09, rac-(3S,4R)-5-chloro-1-(8-fluoro-3-quinolyl)-3,4,6-trimethyl-3,4-dihydroisoquinoline] | 82 to 84 °C |
| Cc1ccc2c(c1C#N)[C@H](C)[C@H](C)N=C2c1cnc2c(F)c(F)ccc2c1 (racemic) [E.06, rac-(3S,4S)-1-(7,8-difluoro-3-quinolyl)-3,4,6-trimethyl-3,4-dihydroisoquinoline-5-carbonitrile] | 140 to 142 °C |
| Cc1ccc2c(c1C#N)[C@H](C)[C@H](C)N=C2c1cnc2c(F)cccc2c1 (racemic) | 164 to 166 °C |
| C[C@@H]1N=C(c2cnc3c(F)cccc3c2)c2cccc(Br)c2[C@H]1C (racemic) [E.12, rac-(3S,4R)-5-bromo-1-(8-fluoro-3-quinolyl)-3,4-dimethyl-3,4-dihydroisoquinoline] | 132 to 134 °C |

Further lines, results first:

| melting point | SMILES |
| --- | --- |
| 84 to 86 °C | Cc1ccc2c(c1Cl)[C@H](C)[C@H](C)N=C2c1cnc2c(F)cccc2c1 (racemic) [E.14, rac-(3S,4S)-5-chloro-1-(8-fluoro-3-quinolyl)-3,4,6-trimethyl-3,4-dihydroisoquinoline] |
| 100 to 102 °C | C[C@@H]1N=C(c2cnc3c(F)cccc3c2)c2cccc(Cl)c2[C@@H]1C (racemic) [E.15, rac-(3S,4S)-5-chloro-1-(8-fluoro-3-quinolyl)-3,4-dimethyl-3,4-dihydroisoquinoline] |
